According to patent publication US20020192262A1, “1'-Acetoxychavicol acetate for tuberculosis treatment” (National Science and Technology Development Agency, priority 2001, published 2002):

Test system: 30 clinical strains of M. tuberculosis isolated from patients in Thailand
Assay: Microplate Alamar Blue assay, clinical strains
Type: cell-based
Conditions: Mycobacterium tuberculosis, including isoniazid and/or rifampin resistant strains, read-out: MICs against clinical strains of M. tuberculosis

For `C=CC(OC(C)=O)c1ccc(OC(C)=O)cc1` (stereo not shown) [1′-acetoxychavicol acetate, 1′-Acetoxychavicol acetate], the MIC was 0.1 to 0.5 µg/mL.
